One data set deals with LA. In words: Resistance factor, drug-resistant Jurkat leukaemia subline. The format is cell-based, human. The procedure: (§1) Tumour cell lines were cultured in 96-well plates. Growth of NCI cell lines was assessed using sulpho-rhodamine B staining (Skehan P., et al., J. Natl. Cancer Inst. 1990, 82, 1107-1112), that of the leukaemia lines with (4,5-dimethylthiazole-2-yl)-2,5-diphenyltetrazolium (MTT) staining (Mosmann T., J. Immun. Methods 1983, 65, 55-63) and that of the primary human tumour material by ^3H-thymidine incorporation (Marshall E.S., et al., J. Natl. Cancer Inst. 1992, 84, 341-344). Primary tumour material was cultured in 96-well plates in which the wells were coated with agarose to inhibit selectively the growth of normal cells. (Marshall E.S., et al., J. Natl. Cancer Inst. 1992, 84, 341-344). Primary cultures were incubated at 37°C in sealed perspex boxes containing a humidified atmosphere of 5% CO2 and 5% O2 in nitrogen for 7 days. 5-Methyl-[^3H]-thymidine (20 Ci.mmol^-1; 0.04 µCi per well), thymidine and 5-fluorodeoxyuridine (each at final concentrations of 0.5 µM) were added in medium to cultures (20 µl per well) 24 h before terminating the cultures. Cells were aspirated on to glass fibre filters using a multiple automated sample harvester (LKB Wallac OY Beta Harvester). The filter discs were washed for 15 seconds with water, dried, and the amount of tritium retained quantified by liquid scintillation.
(§2) IC50 values were defined as in Paull K.D., et al., J. Natl. Cancer Inst. 1989, 81:1088-1092, where growth, as indicated by staining or thymidine incorporation, corresponded to 50% of that of the control cultures. […] Variances of DELTA values were expressed as standard deviations in log10 units. Comparison of DELTA values was made using Pearson correlation coefficients. Resistance factors were defined as the ratios of IC50 values between the resistant line and the parent line. Statistical evaluation was performed either with NCI programmes, with RS/1 software (BBN Research Systems, Cambridge, MA, USA), or with Sigmaplot (Jandel Scientific, San Rafael, CA, USA).
(§3) The effect of DACA on the growth of cultured cells was assessed by continuous drug exposure. […] Four multidrug-resistant cell lines, developed from JL and JB1 by in vitro exposure to increasing concentrations of doxorubicin (LD and B1D) or amsacrine (LA and B1A) (Finlay G.J., et al., J. Natl. Cancer Inst. 1990, 82, 662-667, Snow K., et al., Br. J. Cancer 1991, 63, 17-28) were tested.
(§4) DACA was compared with six other drugs including four topo II poisons, doxorubicin, mitozantrone, etopo-side and amsacrine. […]

Another data set has as its system LD. The data set is described as above. The data set is classed as cell-based, human. The procedure: as §1, §2, §3, §4
The next data set concerns B1A. The description is as above. The format is cell-based, human. As for the experimental part: as §1, §2, §3, §4
Another data set concerns B1D. The data set is described as above. The data set is classed as cell-based, human. As for the experimental part:
as §1, §2, §3, §4

In data set [1] the test system is subcutaneous melanoma xenografts growing in nude mice. The note with it: summary given by Berger et al.; cited from earlier work.
Data set [2] has as its system advanced colon 38 tumours. In words: Tumour growth delay, advanced subcutaneous colon 38 tumours in mice. The format is in vivo. As for the experimental part:
Colon 38 carcinoma was obtained from the Mason Research Institute (Worchester, MA, USA) and was grown in BDF1 hosts. Tumour fragments (1 mm^3) were implanted subcutaneously in anaesthetised mice. Tumours had grown to the appropriate size 9 days after implantation. A melanoma tumour line (WADH) was developed in the Cancer Research Laboratory. Tumour cells were grown in culture and 1 x 10^6 cells were implanted intradermally into the flank of nude (C57BI/J genetic background) mice. Mice were grown under sterile surroundings until tumours were of appropriate size.
Tumours were measured 3x (colon 38) or 2x (xeno-graft) weekly with callipers and tumour volumes calculated as 0.52a^2b, where a and b were the minor and major tumour axes. Tumour growth delays were measured at a time when tumour volumes of treated and control animals had increased by 4-fold.
The effects of five compounds, • (i) DACA • (ii) N-[2-(dimethylamino)ethyl]-9-methoxyphen-azine-1-carboxamide (compound 28 of J. Med. Chem., 1987, 30, 843-851), • (iii) N-[2-(dimethylamino) ethyl]-2-phenylquino-line-8-carboxamide (compound 6 of J. Med. Chem. 1988, 31, 1048-1052), • (iv) N-[2-(dimethylamino)ethyl]-2-(4-pyridyl)-guinoline-8-carboxamide (compound 18 of J. Med. Chem., 1989, 32, 396-401), and • (v) N-[2-(dimethylamino)ethyl]-9-bromo-dibenzo-[1,4]-dioxin-1-carboxamide (compound 20 of J. Med. Chem. 1992, 35, 258-266) on the growth of advanced colon 38 tumours in mice was investigated by implanting tumour fragments subcutaneously and allowing them to grow until they had reached a diameter of 5-8 mm.

For another data set, the system named is human cell lines. The data set is described as follows: Cytotoxicity under continuous drug exposure, mean over human cell lines. The format is cell-based. The note with it: read-out: mean IC50 value for human cell lines. The procedure:
The latter value compared with 2 µM for the 4-pyridyl-quinoline analogue, 0.76 µM for amsacrine, 0.1 µM for the amsacrine analogue 4'-(9-[4-[N-methylcarboxamido]-5-methyl]-acridinylamino)-methanesulphon-m-anisidide ("CI-921") and 81 µM for etoposide.

For data set [3], the system named is panel of cell lines encompassing a number of tumour types. In words: NCI cell line panel, growth inhibition by protein staining. The format is cell-based. As to conditions: data provided by the National Cancer Institute. As for the experimental part:
as §1, §2

The subject of data set [4] is primary human melanoma cultures. In words: cells. As to conditions: for IC50: Homo sapiens, read-out: mean IC50. As for the experimental part: Acridine carboxamide hydrochloride, synthesised in the Cancer Research Laboratory (Atwell G.J., et al., J.Med. Chem. 1987, 30, 664-669), and amsacrine isethionate, obtained from the Parke-Davis Division of the Warner-Lambert Company, Ann Arbor, USA, were dissolved in 50% v/v aqueous ethanol to make stock solutions of 2-5 mmol/l and stored at -20°C. Other cytotoxic drugs were available either from the NCI repository (Monks A., et al., J. Natl. Cancer Inst. 1991, 83, 757-766) or were obtained as described in Marshall E.S., et al., J. Natl. Cancer Inst. 1992, 84, 341-344 and Finlay, et al., Eur. J. Cancer din. Oncol. 1986, 22, 655-662. Cell lines were from the NCI repository except for MM-96 (Dr. R. Whitehead, Ludwig Institute, Melbourne, Australia), FME (Dr. K.M. Tveit, Norwegian Radium Hospital, Oslo, Norway) and Jurkat normal and multidrug-resistant lines (Dr. K. Snow and Dr. W. Judd, Department of Cellular and Molecular Biology, University of Auckland). Melanoma tissue was obtained from patients with pathologically confirmed metastatic and recurrent melanomas under Auckland Hospital Ethical Committee guidelines. Cells were released by digestion of tissue (at 50 mg.ml^-1) with collagenase (1 mg.ml^-1) and DNAase (50 µg.ml^-1) with continuous stirring at 37°C for 1 to 2 hours, and cultured as previously described (Marshall E.S., et al., J. Natl. Cancer Inst. 1992, 84, 341-344).
as §1, §2
DACA was also compared in a series of 12 primary melanoma cultures. Tissue was excised from human malignant melanomas and cultured using a modified 96-well assay system in which the cells were cultured on agarose and assayed for proliferation using the ^3H-thymidine incorporation assay as described in Marshall E.S., et al., J. Natl. Cancer Inst. 1992, 84, 341-344.

[5] abbreviates: human, jurkat leukaemia sublines.
Where [6] appears, read: LA (from L by exposure to amsacrine), ratio of IC50 resistant line / parent line.
[7] abbreviates: LD (from L by exposure to doxorubicin), ratio of IC50 resistant line / parent line.
Where [8] appears, read: B1A (from B1 by exposure to amsacrine), ratio of IC50 resistant line / parent line.
Setting [9] is: B1D (from B1 by exposure to doxorubicin), ratio of IC50 resistant line / parent line.
Where [10] appears, read: 100mg/kg each injection, ip, 2 doses, 0, 60 min.
Where [11] appears, read: maximum tolerated dose of the comparison drug.

Read-outs that look alike come from different tables or passages of the source. Bounds are passed on as bounds.

As to `CC[C@]1(O)C[C@H]2CN(CCc3c([nH]c4ccccc34)[C@@](C(=O)OC)(c3cc4c(cc3OC)N(C=O)[C@H]3[C@@](O)(C(=O)OC)[C@H](OC(C)=O)[C@]5(CC)C=CCN6CC[C@]43[C@@H]65)C2)C1` [vincristine], the Resistance factors in the data set with LA (setting [5]) is listed as 1.5; in the data set on LD (setting [5]) it was 3.6; in the data set on B1A (setting [5]), 2.0; in the data set on B1D (setting [5]) it was 10. Moreover, the “Percentage of xenografts responding” value in data set [1] is 43%.
As to `CN(C)CCNC(=O)c1cccc2ccc(-c3ccccc3)nc12` [(iii), N-[2-(dimethylamino)ethyl]-2-phenylquino-line-8-carboxamide], the “Growth delay” value in data set [2] (75mg/kg each injection, ip, 2 doses, 0,60 min) was found to be 8.5 days.
For the compound Bleomycin, the “Percentage of xenografts responding” value in data set [1] is recorded as 0%.
As a reminder, the IC50 is the concentration needed to halve the response being measured. With `CNC(=O)c1cccc2c(Nc3ccc(NS(C)(=O)=O)cc3OC)c3cccc(C)c3nc12` [CI-921, 4'-(9-[4-[N-methylcarboxamido]-5-methyl]-acridinylamino)-methanesulphon-m-anisidide], the IC50 in the data set with human cell lines was found to be 100 nM.
As to `O=C1c2c(O)ccc(O)c2C(=O)c2c(NCCNCCO)ccc(NCCNCCO)c21` [mitoxantrone], the Resistance factors with LA (setting [6]) came out at 42; with LD (setting [7]) it was 160; in the data set with B1A (setting [8]), 59; in the data set on B1D (setting [9]) it was 8.4.
With `COc1cccc2nc3cccc(C(=O)NCCN(C)C)c3nc12` [(ii), N-[2-(dimethylamino)ethyl]-9-methoxyphen-azine-1-carboxamide], the “Growth delay (days)” value in data set [2] (setting [10]) was 5,5 (2 expts) days.
`O=P1(N(CCCl)CCCl)NCCCO1` (centres unmarked) [cyclophosphamide, reference compound]: the Growth delay in data set [2] (setting [11]) came out at 6.5 days. Also, the “Percentage of xenografts responding” value in data set [1] is recorded as 11%.
Consider `CN(Cc1cnc2nc(N)nc(N)c2n1)c1ccc(C(=O)N[C@@H](CCC(=O)O)C(=O)O)cc1` [Methotrexate], for which the “Percentage of xenografts responding” value in [1] was 7%.
In data set [2] (setting [11]), `O=c1[nH]cc(F)c(=O)[nH]1` [5-fluorouracil, reference compound] came in with a Growth delay of 13 days. Moreover, the “Percentage of xenografts responding” value in [1] is recorded as 14%.
For Mitomycin C, the “Percentage of xenografts responding” value in data set [1] is reported as 32%.
`N.N.[Cl][Pt][Cl]` [Cisplatin]: the “Percentage of xenografts responding” value in [1] is reported as 13%.
With `CN(C)CCNC(=O)c1cccc2ccc(-c3ccncc3)nc12` [(iv), N-[2-(dimethylamino)ethyl]-2-(4-pyridyl)-guinoline-8-carboxamide], the “Growth delay” value in [2] (50mg/kg each injection, ip, 2 doses, 0,60 min) was 5 days. Also, in the data set with human cell lines (continuous drug exposure over approx. 5 cell doubling times), the IC50 is 2000 nM.
For the compound `COc1cccc2c1C(=O)c1c(O)c3c(c(O)c1C2=O)C[C@@](O)(C(=O)CO)C[C@@H]3O[C@H]1C[C@H](N)[C@H](O)[C@H](C)O1` [doxorubicin], the Resistance factors in the data set with LA (setting [5]) is given as 3.8; with LD (setting [5]), 16; in the data set on B1A (setting [5]), 11; in the data set on B1D (setting [5]) it was 15. Moreover, the “Percentage of xenografts responding” value in data set [1] is on record as 5% (total of 5 studies). In addition, the IC50 came out at 140 nM in data set [3] and 56 nM in data set [4].
In the case of `CC[C@]1(O)C[C@@H]2CN(CCc3c([nH]c4ccccc34)[C@@](C(=O)OC)(c3cc4c(cc3OC)N(C)[C@H]3[C@@](O)(C(=O)OC)[C@H](OC(C)=O)[C@]5(CC)C=CCN6CC[C@]43[C@@H]65)C2)C1` [Vinblastine], the “Percentage of xenografts responding” value in data set [1] is listed as 10%.
For `CN(C)CCNC(=O)c1cccc2c1Oc1c(Br)cccc1O2` [(v), N-[2-(dimethylamino)ethyl]-9-bromo-dibenzo-[1,4]-dioxin-1-carboxamide], the “Growth delay” value in data set [2] (setting [10]) is given as 7 days.
With `COc1cc([C@@H]2c3cc4c(cc3[C@@H](O[C@@H]3O[C@@H]5CO[C@@H](C)O[C@H]5[C@H](O)[C@H]3O)[C@H]3COC(=O)[C@H]23)OCO4)cc(OC)c1O` [etoposide], the Resistance factors is recorded as 11 in the data set with LA (setting [5]), 93 with LD (setting [5]), 22 in the data set with B1A (setting [5]) and 83 with B1D (setting [5]). In addition, the “Percentage of xenografts responding” value in data set [1] is 0% (2 studies). For the same compound, the results for the IC50 (in [3]; in data set [4]; in the data set on human cell lines) were 21000 nM, 2200 nM and 81000 nM, respectively. The “proportions of cells killed” value in data set [4] (human, primary melanoma cultures) is listed as not above 90%.
In the case of `CC[C@@]1(O)C(=O)OCc2c1cc1n(c2=O)Cc2cc3ccccc3nc2-1` [camptothecin], the Resistance factors stood at 1.0 in the data set with LA (setting [6]), 0.97 in the data set on LD (setting [7]), 0.48 with B1A (setting [8]) and 0.86 in the data set on B1D (setting [9]).

The values above are taken from EP0642343B1, “Acridine carboxamides for the treatment of cancer” (XENOVA LIMITED, priority 1992, dated 1993).
